We go through six compounds from ChEMBL document CHEMBL1201862, “PubChem BioAssay data set” (2004).

Activity calls are given as the source filed them. A value given as a limit tells only on which side of the number the result lay.

Experiment [1] deals with T1, Luciferin 4-monooxygenase (Photuris pensylvanica, UniProt Q27757).
T1 sequence (Q27757 whole entry): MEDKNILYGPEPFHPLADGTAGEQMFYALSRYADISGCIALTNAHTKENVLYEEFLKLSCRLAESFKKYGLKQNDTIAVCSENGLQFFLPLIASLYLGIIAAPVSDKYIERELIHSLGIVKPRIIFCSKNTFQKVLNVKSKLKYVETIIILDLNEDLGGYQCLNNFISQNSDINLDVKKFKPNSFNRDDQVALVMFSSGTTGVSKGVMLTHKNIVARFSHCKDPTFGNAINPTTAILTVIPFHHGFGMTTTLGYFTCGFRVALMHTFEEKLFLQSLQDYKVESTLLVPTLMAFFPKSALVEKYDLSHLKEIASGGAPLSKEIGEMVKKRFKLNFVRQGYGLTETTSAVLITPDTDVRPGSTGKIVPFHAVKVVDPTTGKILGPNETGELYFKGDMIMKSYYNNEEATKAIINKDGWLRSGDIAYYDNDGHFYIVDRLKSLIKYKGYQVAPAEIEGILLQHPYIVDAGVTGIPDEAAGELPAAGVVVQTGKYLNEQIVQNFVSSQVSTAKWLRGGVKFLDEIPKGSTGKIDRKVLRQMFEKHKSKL
In words: inhibition of Cell Titer Glo luciferase signal – biochemical, luminescence, cherry-picks, counter-screen for HSF-1 reporter inhibitor project, dose response (AID 588847). Background: In ATP-based viability assays light output follows the ATP content of the culture.

Experiment [2] concerns Escherichia coli. In words: microbe, parasite or virus in culture.
In experiment [3] the test system is Escherichia coli. In words: microbe, parasite or virus in culture. The source holds these as a separate data set.
Experiment [4] relates to Vero. Nature of the experiment: cells. It counts as functional, cell-based. To be noted: Chlorocebus sabaeus.
Experiment [5] deals with HEK293. In words: cells. To be noted: Homo sapiens.
The test system of experiment [6] is INS1. In words: INS-1E survival protection against cytokine death – cell-based, luminescence, retest, dose response (AID 449756).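 Further: cell death triggered by IL-1 beta plus TNF-alpha plus IFN-gamma mixture; protective hits raise ATP signal compared with cytokine alone wells.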 To be noted: Rattus norvegicus. The class given is functional.
Experiment [7] addresses T2, Heat shock factor protein 1 (Mus musculus, UniProt P38532).
T2 sequence (P38532 whole entry): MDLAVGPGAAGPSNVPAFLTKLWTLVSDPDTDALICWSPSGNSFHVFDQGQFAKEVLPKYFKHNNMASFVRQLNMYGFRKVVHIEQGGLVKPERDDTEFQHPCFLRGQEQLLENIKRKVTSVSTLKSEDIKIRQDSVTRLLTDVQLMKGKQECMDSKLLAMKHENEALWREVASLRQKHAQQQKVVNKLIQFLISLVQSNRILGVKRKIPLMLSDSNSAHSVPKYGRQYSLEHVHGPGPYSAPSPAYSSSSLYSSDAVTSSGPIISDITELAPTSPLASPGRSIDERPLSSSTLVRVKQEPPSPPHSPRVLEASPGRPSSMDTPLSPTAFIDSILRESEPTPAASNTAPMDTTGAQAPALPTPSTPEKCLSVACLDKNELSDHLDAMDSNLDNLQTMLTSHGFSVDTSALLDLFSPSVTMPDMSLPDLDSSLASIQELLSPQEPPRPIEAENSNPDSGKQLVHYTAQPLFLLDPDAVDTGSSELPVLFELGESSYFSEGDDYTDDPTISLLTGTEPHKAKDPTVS
In words: enhancement of HSF1-driven luciferase signal – cell-based, NIH3T3, luminescence, dose retest, confirmation (AID 435004).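 Further: stress induced by proteasome inhibitor MG132 added 30 min after compound; luciferase reporter driven by HSF1 response element in NIH3T3 cells; actives raise luminescence as potentiators of the MG132 stress response.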 The class given is functional.

Experiment [8] has as its target Induced myeloid leukemia cell differentiation protein Mcl-1 (Homo sapiens, UniProt Q07820). The class given is functional.
The nature of experiment [9]: Luminescence Cell-Based Dose Retest to Confirm Inhibitors of Cancer Stem Cells. [Related pubchem assays (depositor defined):AID2717, AID2721]. It counts as functional. To be noted: Homo sapiens.
Experiment [10] relates to HEK293. Nature of the experiment: cells. To be noted: Homo sapiens. The source holds these as a separate data set.
Experiment [11] relates to Vero. Nature of the experiment: cells. To be noted: Chlorocebus sabaeus. It counts as functional.

Chain of Induced myeloid leukemia cell differentiation protein Mcl-1 (Q07820 whole entry): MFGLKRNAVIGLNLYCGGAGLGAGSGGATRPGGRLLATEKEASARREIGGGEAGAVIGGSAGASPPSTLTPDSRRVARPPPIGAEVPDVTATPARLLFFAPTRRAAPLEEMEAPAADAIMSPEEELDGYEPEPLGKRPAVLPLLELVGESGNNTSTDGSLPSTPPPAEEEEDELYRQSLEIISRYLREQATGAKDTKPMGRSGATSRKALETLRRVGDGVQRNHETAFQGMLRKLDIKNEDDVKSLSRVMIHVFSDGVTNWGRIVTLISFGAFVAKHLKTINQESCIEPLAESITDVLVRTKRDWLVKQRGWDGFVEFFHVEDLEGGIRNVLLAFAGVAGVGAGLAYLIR

The AC50 is the midpoint of the concentration-response curve, whichever way the signal moves. As to `CCC(=O)O[C@]1(C(=O)CCl)[C@@H](C)C[C@H]2[C@@H]3CCC4=CC(=O)C=C[C@]4(C)[C@@]3(F)[C@@H](O)C[C@@]21C` [CLOBETASOL PROPIONATE], in [1], the AC50 was > 52 µM (inactive).

Take `CC(C)(C)OC(=O)NCCCCCNC(=O)c1[nH]cnc1C(=O)NC1CCN(C(=O)OC(C)(C)C)CC1`: the half-maximal activity concentration (AC50) in experiment [2] is 235 µM (active).

As for `Cc1ccc(CNC(=O)COC(=O)c2cccnc2Cl)cc1`, the AC50 in [3] was 29.3 µM (active); in experiment [2] it was 73.1 µM (active).

One may read the IC50 as the point on the concentration scale where inhibition reaches its midpoint. For orientation: EC50 means the concentration that produces a half-maximal response. Broadly, the CC50 is the concentration that lowers cell viability or growth by half. On to `Sc1nnc(-c2cc(-c3ccccc3)[nH]n2)n1/N=C/C(Br)=C/c1ccccc1`, for which the concentration for half-maximal inhibition (IC50) in [4] is 6.87 µM (active); in [8] it was 4.97 µM (active). The figures for the EC50 in experiment [5], in [7] and in [10] were > 59.6 µM (inactive), 2.65 µM (inconclusive) and > 59.6 µM (inactive), respectively. Further, the results for the AC50 in experiment [6] and in [9] were 9.04 µM (active) and 0.614 µM (active), respectively. The CC50 in experiment [11] was > 25 µM (active).

As for `Cn1c(=O)oc2cc(S(=O)(=O)NCCN3CCCCCC3)ccc21`, the AC50 in experiment [3] is 24.2 µM (active).

With `c1coc(CN2CNc3nc4ccccc4n3C2)c1`, the AC50 in experiment [3] was 79.4 µM (active); in [2], 101 µM (active).
